Values of other authors, collected in patent US20170027865A1, “Dry Pharmaceutical Compositions for Topical Delivery of Oral Medications, Nasal Delivery and to Treat Ear Disorders” (CMPD LICENSING LLC, priority 2013, published 2017).

Columns and labels:
Chlamydia psittaci = settings: Chlamydia psittaci; Gram: n/a
Brucella species = settings: Brucella species; Gram: neg
Proteus mirabilis = settings: Gram: neg
Acinetobacter lwoffii = settings: Gram: neg
Chlamydia trachomatis = settings: Gram: n/a
Vibrio cholerae = settings: Gram: neg
Pseudomonas aeruginosa = settings: Gram: neg
Neisseria meningitidis = settings: Gram: neg
Corynebacterium jeikeium = settings: Gram: pos
Mycoplasma pneumoniae = settings: Gram: n/a
Streptococcus pneumoniae = settings: Gram: pos
[1] = system: Acinetobacter calcoaceticus; settings: Gram: neg
[2] = system: Klebsiella (Calymmatobacterium) granulomatis; settings: Gram: neg
Enterobacter aerogenes = settings: Gram: neg
Enterobacter cloacae = settings: Gram: neg
Streptococcus pyogenes = settings: Gram: pos
[3] = system: Staphylococcus epidermidis; settings: Gram: pos
Francisella tularensis = settings: Francisella tularensis; Gram: neg
Escherichia coli = settings: Gram: neg
Rickettsiae = settings: Rickettsiae; Gram: neg
Morganella morganii = settings: Gram: neg
Enterococcus faecalis = settings: Gram: pos
Pseudomonas fluorescens = settings: Gram: neg
Moraxella catarrhalis = settings: Gram: neg
Campylobacter jejuni = settings: Gram: neg
Clostridium difficile = settings: Gram: anaer
Legionella pneumophila = settings: Legionella pneumophila; Gram: neg
Providencia rettgeri = settings: Gram: neg
Enterobacter sakazakii = settings: Gram: neg
Haemophilus influenzae = settings: Gram: neg
[4] = system: Methicillin Resistant Staph aureus (MRSA); settings: Gram: pos
Citrobacter diversus = settings: Gram: neg
Bordetella pertussis = settings: Gram: neg
Clostridium perfringens = settings: Clostridium perfringens; Gram: anaer
Bacteroides fragilis = settings: Gram: anaer
Enterococcus faecium = settings: Gram: pos
Klebsiella pneumoniae = settings: Gram: neg
Providencia stuartii = settings: Gram: neg
Proteus vulgaris = settings: Gram: neg
Bartonella bacilliformis = settings: Gram: neg
Klebsiella oxytoca = settings: Gram: neg
Streptococcus agalactiae = settings: Gram: pos
Serratia marcescens = settings: Gram: neg
Chlamydia pneumoniae = settings: Gram: n/a
Citrobacter freundii = settings: Gram: neg
[5] = system: Staphylococcus aureus (MSSA); settings: Gram: pos
Acinetobacter baumannii = settings: Gram: neg
Neisseria gonorrhoeae = settings: Gram: neg
[6] = system: Corynebacterium urealyticum; settings: Gram: pos
[7] = system: Viridans group streptococci; settings: Gram: pos
[8] = system: Haemophilus parainfluenzae; settings: Gram: neg
Diphtheroids = settings: Gram: pos
Peptostreptococcus = settings: Gram: pos
Shigella sonnei = settings: Gram: neg
Shigella flexneri = settings: Gram: neg
Yersinia pestis = settings: Yersinia pestis; Gram: neg
Shigella dysenteriae = settings: Gram: neg
Haemophilus ducreyi = settings: Gram: neg
Shigella boydii = settings: Gram: neg

## CC[C@H]1OC(=O)[C@H](C)[C@@H](O[C@H]2C[C@@](C)(OC)[C@@H](O)[C@H](C)O2)[C@H](C)[C@@H](O[C@@H]2O[C@H](C)C[C@H](N(C)C)[C@H]2O)[C@](C)(O)C[C@@H](C)CN(C)[C@H](C)[C@@H](O)[C@]1(C)O [Azithromycin, azithromycin]
Chlamydia psittaci
  Expected coverage: yes
Brucella species
  Expected coverage: no
Proteus mirabilis
  Expected coverage: no
Acinetobacter lwoffii
  Expected coverage: no
Chlamydia trachomatis
  Expected coverage: yes
Vibrio cholerae
  Expected coverage: yes
Pseudomonas aeruginosa
  Expected coverage: no
Neisseria meningitidis
  Expected coverage: yes
Corynebacterium jeikeium
  Expected coverage: no
Mycoplasma pneumoniae
  Expected coverage: yes
Streptococcus pneumoniae
  Expected coverage: yes
[1]
  Expected coverage: no
[2]
  Expected coverage: no
Enterobacter aerogenes
  Expected coverage: no
Enterobacter cloacae
  Expected coverage: no
Streptococcus pyogenes
  Expected coverage: yes
[3]
  Expected coverage: yes
Francisella tularensis
  Expected coverage: no
Escherichia coli
  Expected coverage: no
Rickettsiae
  Expected coverage: yes
Morganella morganii
  Expected coverage: no
Enterococcus faecalis
  Expected coverage: no
Pseudomonas fluorescens
  Expected coverage: no
Moraxella catarrhalis
  Expected coverage: yes
Campylobacter jejuni
  Expected coverage: yes
Clostridium difficile
  Expected coverage: no
Legionella pneumophila
  Expected coverage: yes
Providencia rettgeri
  Expected coverage: no
Enterobacter sakazakii
  Expected coverage: no
Haemophilus influenzae
  Expected coverage: yes
[4]
  Expected coverage: no
Citrobacter diversus
  Expected coverage: no
Bordetella pertussis
  Expected coverage: yes
Clostridium perfringens
  Expected coverage: no
Bacteroides fragilis
  Expected coverage: no
Enterococcus faecium
  Expected coverage: no
Klebsiella pneumoniae
  Expected coverage: no
Providencia stuartii
  Expected coverage: no
Proteus vulgaris
  Expected coverage: no
Bartonella bacilliformis
  Expected coverage: yes
Klebsiella oxytoca
  Expected coverage: no
Streptococcus agalactiae
  Expected coverage: yes
Serratia marcescens
  Expected coverage: no
Chlamydia pneumoniae
  Expected coverage: yes
Citrobacter freundii
  Expected coverage: no
[5]
  Expected coverage: yes
Acinetobacter baumannii
  Expected coverage: no

## C[C@@H]1[C@H](O)[C@@H](C)/C=C/C=C/CC/C=C/C=C/C=C/C=C/C(O[C@H]2O[C@H](C)[C@@H](O)[C@H](N)[C@@H]2O)CC2O[C@](O)(CC(O)C(O)CCC(O)CC(O)CC(O)CC(=O)O[C@H]1C)CC(O)C2C(=O)O (some centres unmarked) [Nystatin, nystatin]
Candida species
  Expected coverage: yes

## colistimethate
Chlamydia psittaci
  Expected coverage: no
Brucella species
  Expected coverage: no
Proteus mirabilis
  Expected coverage: no
Chlamydia trachomatis
  Expected coverage: no
Vibrio cholerae
  Expected coverage: no
Pseudomonas aeruginosa
  Expected coverage: yes
Neisseria gonorrhoeae
  Expected coverage: no
Neisseria meningitidis
  Expected coverage: no
Corynebacterium jeikeium
  Expected coverage: no
Mycoplasma pneumoniae
  Expected coverage: no
Streptococcus pneumoniae
  Expected coverage: no
[2]
  Expected coverage: yes
[6]
  Expected coverage: no
[7]
  Expected coverage: no
Enterobacter aerogenes
  Expected coverage: yes
[8]
  Expected coverage: no
Enterobacter cloacae
  Expected coverage: yes
Streptococcus pyogenes
  Expected coverage: no
[3]
  Expected coverage: no
Escherichia coli
  Expected coverage: yes
Diphtheroids
  Expected coverage: no
Enterococcus faecalis
  Expected coverage: no
Pseudomonas fluorescens
  Expected coverage: yes
Moraxella catarrhalis
  Expected coverage: no
Clostridium difficile
  Expected coverage: no
Legionella pneumophila
  Expected coverage: no
Peptostreptococcus
  Expected coverage: no
Providencia rettgeri
  Expected coverage: no
Enterobacter sakazakii
  Expected coverage: yes
[4]
  Expected coverage: no
Bordetella pertussis
  Expected coverage: no
Bacteroides fragilis
  Expected coverage: no
Enterococcus faecium
  Expected coverage: no
Klebsiella pneumoniae
  Expected coverage: yes
Providencia stuartii
  Expected coverage: no
Proteus vulgaris
  Expected coverage: no
Klebsiella oxytoca
  Expected coverage: yes
Streptococcus agalactiae
  Expected coverage: no
Serratia marcescens
  Expected coverage: no
Chlamydia pneumoniae
  Expected coverage: no
[5]
  Expected coverage: no

## NC[C@H]1O[C@H](O[C@H]2[C@H](O)[C@@H](O[C@H]3O[C@H](CO)[C@@H](O)[C@H](N)[C@H]3O)[C@H](N)C[C@@H]2N)[C@H](N)C[C@@H]1O [Tobramycin, tobramycin]
Chlamydia psittaci
  Expected coverage: no
Proteus mirabilis
  Expected coverage: yes
Acinetobacter lwoffii
  Expected coverage: no
Chlamydia trachomatis
  Expected coverage: no
Vibrio cholerae
  Expected coverage: no
Pseudomonas aeruginosa
  Expected coverage: yes
Neisseria gonorrhoeae
  Expected coverage: no
Shigella sonnei
  Expected coverage: yes
Neisseria meningitidis
  Expected coverage: no
Corynebacterium jeikeium
  Expected coverage: no
Mycoplasma pneumoniae
  Expected coverage: no
Streptococcus pneumoniae
  Expected coverage: no
[1]
  Expected coverage: no
[2]
  Expected coverage: yes
[6]
  Expected coverage: no
[7]
  Expected coverage: no
Enterobacter aerogenes
  Expected coverage: yes
Enterobacter cloacae
  Expected coverage: yes
Streptococcus pyogenes
  Expected coverage: no
[3]
  Expected coverage: no
Escherichia coli
  Expected coverage: yes
Diphtheroids
  Expected coverage: no
Enterococcus faecalis
  Expected coverage: no
Shigella flexneri
  Expected coverage: yes
Pseudomonas fluorescens
  Expected coverage: yes
Moraxella catarrhalis
  Expected coverage: yes
Campylobacter jejuni
  Expected coverage: yes
Clostridium difficile
  Expected coverage: no
Yersinia pestis
  Expected coverage: yes
Legionella pneumophila
  Expected coverage: no
Peptostreptococcus
  Expected coverage: no
Enterobacter sakazakii
  Expected coverage: yes
Shigella dysenteriae
  Expected coverage: yes
Haemophilus influenzae
  Expected coverage: yes
[4]
  Expected coverage: no
Citrobacter diversus
  Expected coverage: yes
Bordetella pertussis
  Expected coverage: no
Clostridium perfringens
  Expected coverage: no
Bacteroides fragilis
  Expected coverage: no
Enterococcus faecium
  Expected coverage: no
Klebsiella pneumoniae
  Expected coverage: yes
Proteus vulgaris
  Expected coverage: yes
Haemophilus ducreyi
  Expected coverage: yes
Klebsiella oxytoca
  Expected coverage: yes
Streptococcus agalactiae
  Expected coverage: no
Shigella boydii
  Expected coverage: yes
Serratia marcescens
  Expected coverage: yes
Chlamydia pneumoniae
  Expected coverage: no
Citrobacter freundii
  Expected coverage: yes
[5]
  Expected coverage: no
Acinetobacter baumannii
  Expected coverage: no
